Measured values as given in PMC6892914, “Interactions of Ionic Liquids and Spirocyclic Compounds with Liposome Model Membranes. A Steady-State Fluorescence Anisotropy Study” (Scientific Reports, 2019).

How the values were obtained:
[1] = Steady-state fluorescence anisotropy of DPH-doped liposomes, POPC; type: physicochemical; conditions: 5 min incubation at RT
Source text: (§1) The technique used in the present study was steady-state fluorescence anisotropy spectroscopy (fluorescence anisotropy or anisotropy in the following text). The technique was utilised to detect organisational changes within the lipid bilayer using a fluorescent 1,6-diphenyl-1,3,5-hexatriene (DPH) probe. DPH is advantageous in the present application due to its high quantum yield and its ability to indicate subtle changes in the lipid acyl chain organisation. For general reviews on the technique, see Shinitzky & Barenholz[18] and Lentz[19]. The rod-like hydrophobic probe is rotating within the bilayer structure by Brownian motion and it is located between the hydrophobic acyl chains of the lipids. When the probe-containing liposomes are illuminated with UV-light at a fixed wavelength and a fixed level of polarized light, the probe is first excited and subsequently emits light that is partly depolarized, due to the molecular rotations of the probe. This depolarization can be measured as a numerical value of anisotropy (r), as shown by Eq. 1.1 r=I||−I⊥/IT where I|| and I⊥ are the intensities of emitted light parallel and perpendicular to the plane of excitation, respectively. IT is the total intensity of emitted light.
(§2) A reference anisotropy value for each pure liposome was determined daily. This was performed in order to normalise the liposome batch-to-batch and liposome-aging-dependent variation of the anisotropy values. The anisotropy was measured ten times and the mean ± standard deviation was calculated. Subsequently, the pure liposomes and the compounds under investigation were mixed and incubated at room temperature for 5 min, before measuring the anisotropy.
(§3) The lipids and the DPH probe were dissolved in chloroform as stock solutions and the stocks were mixed to give the target molar proportions for each liposome composition (Table 2). After mixing the chloroform lipid stocks, the lipid mixture was dried as a thin film on test tube walls by evaporating the chloroform using a flow of air, until no solvent was visible. The dried thin film of lipids was kept under vacuum for at least 12 h in a desiccator, in order to remove any traces of solvent. Ultra-pure water was added to reach the target lipid concentration of 4.0 mM. […] The aqueous mixture of DPH, lipids and water were incubated under agitation for 60 min at 65 °C and 75 °C to form the non-cholesterol-containing and cholesterol-containing multilamellar liposomes, respectively. Subsequently, the 4.0 mM liposome stock dispersions were extruded through 100 nm pore-size polycarbonate filters 19 times using an Avanti mini-extruder (Avanti Polar Lipids, Alabaster, AL, USA) in order to obtain unilamellar liposomes.
(§4) The fluorescence anisotropy values were measured using a Horiba Jobin Yvon (Northampton, UK) FluoroMax-4 spectrofluorometer, in L-format. The emission and the excitation […] were always set to the same value (8–10 nm) so that the photon counts/second at the detector were as recommended by the manufacturer (from 500 000 to 2 000 000 counts/second). The excitation and emission wavelengths were 360 nm and 450 nm, respectively. The measurements were performed at 21 ± 1 °C. Physiological temperature was not used, since the interactions between the living organism (Vibrio Fischeri) also takes place at a non-physiological temperature of 15 °C. The maximum 7 °C difference (15 °C vs. 22 °C) was considered acceptable. A reference value for the pure liposomes was measured daily. […] Both concentrations were selected by trial and error.

[2] = Steady-state fluorescence anisotropy of DPH-doped liposomes, POPC/POPS 80:20; type: physicochemical; conditions: compound 50 mM, 5 min incubation at RT
Source text: as §1, §2, §3
as §4, with “daily. In order to study the interaction between the compounds and the liposomes, the pure liposomes were mixed with the compounds so that the final concentration of the lipids was 20 µM and that of the studied compounds was 50 mM.” for “daily.”

[3] = Steady-state fluorescence anisotropy of DPH-doped liposomes, POPC/Chol 75:25; type: physicochemical; conditions: compound 50 mM, 5 min incubation at RT
Source text: as §1, §2, §3
as §4, with “daily. In order to study the interaction between the compounds and the liposomes, the pure liposomes were mixed with the compounds so that the final concentration of the lipids was 20 µM and that of the studied compounds was 50 mM.” for “daily.”

[4] = Steady-state fluorescence anisotropy of DPH-doped liposomes, POPC/POPS/Chol 55:20:25; type: physicochemical; conditions: compound 50 mM, 5 min incubation at RT
Source text: as §1, §2, §3
as §4, with “daily. In order to study the interaction between the compounds and the liposomes, the pure liposomes were mixed with the compounds so that the final concentration of the lipids was 20 µM and that of the studied compounds was 50 mM.” for “daily.”

[5] = Steady-state fluorescence anisotropy, stated over the liposome compositions; type: physicochemical; conditions: four liposome compositions; compound 50 mM
Source text: as §1
as §2, with “anisotropy. Similar to the reference measurements, the fluorescence anisotropy value after incubation with the ILs was recorded 10 times and the mean ± standard deviation was calculated.” for “anisotropy.”
In this equation r0 is the fundamental anisotropy in the absence of rotational diffusion of the probe, i.e. the maximum anisotropy value achievable using the specific excitation wavelength. At 360 nm r0 = 0.362 for DPH[26]. C(r) relates the molecular shape and the location of the transition dipoles of the rotating probe into one parameter. For spherical probes C(r) = k/v, where k is the Boltzmann constant and v is the effective volume of the probe. Therefore, C(r) would be constant for spherical molecules, but for other shapes, such as the rod-like DPH, the value is dependent on the experimental value of r. In contrast, as experimentally determined by Shinitzky and Barenholtz, the factor C(r)· T· τ = 240 mPa · s is relatively constant at 0–40 °C in membranes doped with DPH probe. T and τ are the temperature during the experiment and lifetime of the excited state, respectively. By substituting r0 = 0.362 and C(r)· T· τ = 240 mPa · s and by further rearranging of the Eqs. 2 and 3 is obtained.3 η=240mPas⋅r/0.362−r
The equation gives the approximate apparent microviscosity (±15%) based on the recorded anisotropy values. The benefit of determining this is the hyperbolic growth of the apparent microviscosity relatively to anisotropy. […]
In order to compare the anisotropy values with the toxicity values in greater detail, the relative change in anisotropy Δr (%) was calculated as given by Eq. 44 Δr=rliposome+toxicant−rpureliposome/rpureliposome where rpure liposome is the daily anisotropy value measured for each pure liposome and r liposome+toxicant the anisotropy value measured after mixing the pure liposome with the compound of interest. […]

[6] = 333 mM; cited from earlier work
[7] = Steady-state fluorescence anisotropy of DPH-doped liposomes, POPC/POPS 80:20; type: physicochemical; conditions: compound 0.2 mM, 5 min incubation at RT
[8] = Steady-state fluorescence anisotropy of DPH-doped liposomes, POPC/Chol 75:25; type: physicochemical; conditions: compound 0.2 mM, 5 min incubation at RT
[9] = Steady-state fluorescence anisotropy of DPH-doped liposomes, POPC/POPS/Chol 55:20:25; type: physicochemical; conditions: compound 0.2 mM, 5 min incubation at RT

Q: With `C1CC[N+]2(CC1)CCCC2.CC(=O)[O-]` [[4.5][OAc], 5-Azoniaspiro[4.5]decane acetate] as the compound, how does the “Relative change in anisotropy, Δr” value ([1]; compound 50 mM) read?
A: The value was 6%.

Q: What about the “Relative change in anisotropy, Δr” value [2] of the same compound?
A: Its value is -5%.

Q: And the “Relative change in anisotropy, Δr” value [3]?
A: The value was -1%.

Q: And the “Relative change in anisotropy, Δr” value [4]?
A: Its value is -6%.

Q: And the “Δr, range depending on the liposome composition” value (shortened to “Δr, range depending”) [5]?
A: Its value is −6% to +6.

Q: With `CCO` [ethanol] as the compound, how does the “changes in fluorescence polarisation” value [6] read?
A: Its value is < 10%.

Q: What does the source list for `CC(=O)[O-].[Na+]` [NaOAc, Sodium acetate, reference compound]?
A: Relative change in anisotropy, Δr ([1]; compound 50 mM): 11%; Relative change in anisotropy, Δr [2]: 13%; Relative change in anisotropy, Δr [3]: 12%; Relative change in anisotropy, Δr [4]: 12%; Δr, range depending on the liposome composition [5]: 11–13%

Q: For `CS(=O)(=O)[O-].[Na+]` [NaOMs, Sodium mesylate, reference compound], which “Relative change in anisotropy, Δr” value ([1]; compound 50 mM) is on record?
A: Its value is 17%.

Q: And the “Relative change in anisotropy, Δr” value [2]?
A: Its value is 11%.

Q: And the “Relative change in anisotropy, Δr” value [3]?
A: The value was 6%.

Q: And the “Relative change in anisotropy, Δr” value [4]?
A: Its value is 13%.

Q: What about the “Δr, range depending” value [5] of the same compound?
A: The value was 6–17%.

Q: For `CN(C)C(=N)N(C)C.CS(=O)(=O)O` [[TMGH][OMs], 1,1,3,3-Tetramethylguanidinium mesylate], which “Relative change in anisotropy, Δr” value ([1]; compound 50 mM) is on record?
A: Its value is 11%.

Q: And the “Relative change in anisotropy, Δr” value [2]?
A: Its value is 6%.

Q: What about the “Relative change in anisotropy, Δr” value [3] of the same compound?
A: The value was 3%.

Q: What about the “Relative change in anisotropy, Δr” value [4] of the same compound?
A: Its value is 5%.

Q: What about the “Δr, range depending” value [5] of the same compound?
A: The value was 3–11%.

Q: Which “Relative change in anisotropy, Δr” value ([1]; compound 0.2 mM) does the source give for `CC(=O)[O-].CCCCCCCC[P+](C)(CCCCCCCC)CCCCCCCC` [[P8881][OAc], Methyltrioctylphosphonium acetate] here?
A: The value was -19%.

Q: What about the “Relative change in anisotropy, Δr” value [7] of the same compound?
A: Its value is -36%.

Q: What about the “Relative change in anisotropy, Δr” value [8] of the same compound?
A: Its value is -41%.

Q: What about the “Relative change in anisotropy, Δr” value [9] of the same compound?
A: Its value is -47%.

Q: For `C1CCC2=NCCCN2CC1.CS(=O)(=O)O` [[DBUH][OMs], 1,8-Diazabicyclo[5.4.0]undec-7-enium mesylate], which “Relative change in anisotropy, Δr” value ([1]; compound 50 mM) is on record?
A: The value was -24%.

Q: What about the “Relative change in anisotropy, Δr” value [2] of the same compound?
A: Its value is -33%.

Q: And the “Relative change in anisotropy, Δr” value [3]?
A: The value was -31%.

Q: What about the “Relative change in anisotropy, Δr” value [4] of the same compound?
A: Its value is -39%.

Q: Which “Relative change in anisotropy, Δr” value ([1]; compound 50 mM) does the source give for `CCN(CC)CC.CS(=O)(=O)O` [[TEAH][OMs], Triethylammonium mesylate] here?
A: The value was 7%.

Q: What about the “Relative change in anisotropy, Δr” value [2] of the same compound?
A: The value was -5%.

Q: What about the “Relative change in anisotropy, Δr” value [3] of the same compound?
A: The value was 2%.

Q: What about the “Relative change in anisotropy, Δr” value [4] of the same compound?
A: Its value is -4%.

Q: What about the “Δr, range depending” value [5] of the same compound?
A: The value was −5% to +7.

Q: With `C1CC[N+]2(CC1)CCCCC2.CC(=O)[O-]` [[5.5][OAc], 6-Azoniaspiro[5.5]undecane acetate] as the compound, how does the “Relative change in anisotropy, Δr” value ([1]; compound 50 mM) read?
A: The value was -16%.

Q: And the “Relative change in anisotropy, Δr” value [2]?
A: Its value is -18%.

Q: What about the “Relative change in anisotropy, Δr” value [3] of the same compound?
A: The value was -18%.

Q: And the “Relative change in anisotropy, Δr” value [4]?
A: The value was -25%.

Q: With “5-Methyl-1,5,7-triazabicyclo[4.3.0]non-6-enium & 7-Methyl-1,5,7-triazabicyclo[4.3.0]non-5-enium mesylate [[MTBNH][OMs]]” as the compound, how does the “Relative change in anisotropy, Δr” value ([1]; compound 50 mM) read?
A: The value was -20%.

Q: What about the “Relative change in anisotropy, Δr” value [2] of the same compound?
A: Its value is -26%.

Q: What about the “Relative change in anisotropy, Δr” value [3] of the same compound?
A: The value was -27%.

Q: What about the “Relative change in anisotropy, Δr” value [4] of the same compound?
A: Its value is -36%.

Q: With `C1CCC[N+]2(CC1)CCCCC2.CC(=O)[O-]` [[5.6][OAc], 6-Azoniaspiro[5.6]dodecane acetate] as the compound, how does the “Relative change in anisotropy, Δr” value ([1]; compound 50 mM) read?
A: Its value is -19%.

Q: And the “Relative change in anisotropy, Δr” value [2]?
A: Its value is -22%.

Q: And the “Relative change in anisotropy, Δr” value [3]?
A: Its value is -21%.

Q: And the “Relative change in anisotropy, Δr” value [4]?
A: The value was -27%.
